Laboratory results: patent US10413576B2, “Therapy for use in the treatment of tumors, acquired immunodeficiency syndrome and leukemias by dual immune biostimulation” (priority 2014, dated 2019)
“Also recorded” adds a separate entry of the source.

Test system: peripheral blood mononuclear cells (PBMC)
Assay: PBMC cell proliferation analysis (BrdU, cytofluorimetry)
Format: cell-based, human
Conditions: PBMC proliferative response vs absence of stimulation (baseline); cut-off P.I. 2
Method: Next, peripheral blood mononuclear cells were separated. The peripheral blood mononuclear cells (PBMC) were separated by density gradient centrifugation. For this aim, 20 ml of “buffy coat” of healthy donors from the immune-transfusion Service of Ospedale di Borgomanero (Italy) were used for each experiment, thus obtaining an average yield of 200×10^6 PBMC/buffy. The amount of separated cells was determined by cell count in Burker's chambers, using Turk's dye, which allows to discriminating between mononuclear and polymorphonuclear cells. […]
Then, the cell proliferation analysis was performed. Cell proliferation was assessed with a cytofluorimetric technique by using the bromodeoxyuridine (BrdU) nuclear labeling protocol. […] Following to 16-hour incubation at 37° C. under humidified atmosphere, 5% CO2, the cell proliferation was analyzed by a cytofluorirnetric technique. […] The cells were analyzed within 24 hours from their preparation by using a cytofluorimeter FACScalibur from Becton Dikinson Company and the analysis program CellQuest.
Results were expressed as cell proliferation index (P.I.), being calculated as ratio of the percentage of proliferating cells in the presence of stimulus and the percentage of the same in the absence of stimulation, A P.I. value greater than 2 was considered acceptable (cut-off value). […]

Phytohaemagglutinin [PHA]
cell proliferation index (P.I.): significantly higher; also recorded: greater than the cut-off value
